Laboratory results as given in paper PMC12067145 (ACS Medicinal Chemistry Letters, 2025).

How the values were obtained:
Adenosine A3 = target: T1, Adenosine A3 (Homo sapiens, UniProt P0DMS8); assay: Eurofins lead profiling screen (radioligand binding)
T1 construct: Eurofins

Adrenergic α1D = Adrenergic α1D (Homo sapiens, UniProt P25100); assay: as above
Adrenergic β1 = Adrenergic β1 (Homo sapiens, UniProt P08588); assay: as above
Bradykinin B1 = Bradykinin B1 (Homo sapiens, UniProt P46663); assay: as above
Dopamine D4.2 = Dopamine D4.2 (Homo sapiens, UniProt P21917, DEL265-296); assay: as above
Endothelin ETB = Endothelin ETB (Homo sapiens, UniProt P24530); assay: as above
[1] = target: Epidermal Growth Factor (EGF) (Homo sapiens, UniProt P00533); assay: as above
Estrogen ERα = Estrogen ERα (Homo sapiens, UniProt P03372); assay: as above
GABAA, Muscimol, Central = assay: as above; design: species or system Rat
GABAB1A = GABAB1A (Homo sapiens, UniProt Q9UBS5); assay: as above
Histamine H2 = Histamine H2 (Homo sapiens, UniProt P25021); assay: as above
Imidazoline I2, Central = assay: as above; design: species or system Rat
Neuropeptide Y Y1 = Neuropeptide Y Y1 (Homo sapiens, UniProt P25929); assay: as above
[2] = target: Nicotinic Acetylcholine α1, Bungarotoxin (Homo sapiens, UniProt P02708+P07510+Q07001); assay: biochemical; assay type: binding; conditions: read-out: % Inhibition at 10 µM
Opiate μ (OP3, MOP) = Opiate μ (OP3, MOP) (Homo sapiens, UniProt P35372); assay: Eurofins lead profiling screen (radioligand binding)
[3] = target: Platelet Activating Factor (PAF) (Homo sapiens, UniProt P25105); assay: as above
Purinergic P2X = assay: as above; design: species or system Rat
Serotonin (5-HT2B) = Serotonin (5-HT2B) (Homo sapiens, UniProt P41595); assay: as above
Serotonin (5-HT3) = Serotonin (5-HT3) (Homo sapiens, UniProt P46098); assay: as above
Sodium Channel, Site 2 = assay: as above; design: species or system Rat
[4] = target: Transporter, Norepinephrine (NET) (Homo sapiens, UniProt P23975); assay: as above
[5] = target: Transporter, Serotonin (SERT) (Homo sapiens, UniProt P31645); assay: as above
[6] = Plasma protein binding (human); assay type: in vitro ADME; conditions: pH 7.4, read-out: PPB human (converted)
Method: 0.3% DMSO - ΔRatio of 1 µM control compound)x100
In vitro Plasma protein binding and Brain homogenate binding: Determination of fraction unbound (f u) in plasma was conducted in vitro via equilibrium dialysis using HTDialysis (HTD) membrane plates. The top half of the plate was filled with 100 uL of Dubelco’s Phosphate Buffered Saline, pH 7.4 (DPBS). Compounds were diluted into plasma from each species (5 µM final concentration), which was aliquoted in triplicate to the ‘bottom half’ of the prepared HTD plate wells. The HTD plate was sealed and incubated for 6 hours at 37 °C. Following incubation, each well (both top and bottom halves) were transferred (20 µL) to the corresponding wells of a 96-shallow-well (V-bottom) plate. The daughter plates were then matrix-matched (DPBS side wells received equal volume of plasma, and plasma side wells received equal volume of DPBS), and extraction solution (120 µL; acetonitrile containing 50 nM carbamazepine as IS) was added to all wells of both daughter plates to precipitate protein and extract test article. The plates were then sealed and centrifuged (3500 rcf) for 10 minutes at ambient temperature. Supernatant (60 µL) from each well of the daughter plates was then transferred to the corresponding wells of new daughter plates (96-shallow-well, V bottom) containing water (Milli-Q, 60 µL/well), and the plates were sealed in preparation for LC-MS/MS analysis (see LC-MS/MS analysis method below).
The unbound fraction (f u) was calculated following the equation below, and mean values for each species were calculated from 3 replicates. A similar approach was used to determine the degree of brain homogenate binding, which employed the same methodology and procedure with the following modifications: 1) a final compound concentration of 1 μM was used, 2) naïve rat brains were homogenized in DPBS (1:3 composition of brain: DPBS, w/w) using a Mini-Bead Beater™ machine in order to obtain brain homogenate, which was then treated in the same manner as the plasma samples in the previously described plasma protein binding assay. Fraction unbound for both plasma and brain samples was determined using Equation 4.

[7] = Rat IV:PBL PK cassette study / in vivo rat clearance; conditions: male, Sprague-Dawley, 0.2 mg/kg
[8] = Mouse PBL (plasma:brain level) study; assay type: in vivo
Method: fortified tube and immediately placed on wet ice. The blood sample was then centrifuged (1700 rcf, 5 minutes, 4 °C) to obtain plasma sample. At the same post-administration time point, a whole brain sample was obtained by rapid dissection, rinsed with PBS, and immediately frozen in individual tissue collection box (dry ice). All brain and plasma samples were stored at -80 °C until
Sample Analysis: Concentrations in plasma and brain homogenates were quantified by liquid chromatography tandem mass spectrometry (LC-MS/MS). Whole brains were homogenized in 3 mL of 70:30 IPA:water in a mini bead beater for 3 min, and centrifuged at 3,500 g for 5 min. 5 uL of the supernatant was diluted in 15 uL of blank plasma for quantification of the analytes. Plasma samples were centrifuged at 3,500 g for 5 min. A standard curve was generated by diluting the analytes DMSO stocks with blank plasma to obtain a final concentration of 10,000 ng/mL followed by a serial dilution down to 0.5 ng/mL. Quality controls were generated by a serial dilution of the 5,000 ng/mL standard curve solution in blank plasma to obtain 3 concentrations of 500, 50, and 5 ng/mL. 20 uL of brain diluted in plasma, plasma, blank plasma, standard curve and QC samples were loaded in a V-bottom 96-well plate. 120 uL of acetonitrile containing 0.05 uM carbamazepine (internal standard) was added to each well and the plate was centrifuged at 3,500 g for 5 min. 60 uL of the supernatant of each well (protein free) was transferred to a new 96-well plate containing 60 uL of water. The plates were sealed for analysis by LC-MS/MS.
Plasma and brain tissue samples originating from in vivo studies were analyzed by electrospray ionization using an AB Sciex Q-TRAP 5500 (Foster City, CA) that was coupled to a Shimadzu LC-20AD pump (Columbia, MD) and a Leap Technologies CTC PAL auto-sampler (Carrboro, NC). Analytes were separated by gradient elution using a C18 column (3 x 50 mm, 3 mm; Fortis Technologies Ltd, Cheshire, UK) that was thermostated at 40 °C. HPLC mobile phase A was 0.1% formic acid in water (pH unadjusted); mobile phase B was 0.1% formic acid in acetonitrile (pH
min, with an isocratic hold for 0.5 min, before transitioning to 10% B over 0.05 min. The column was re-equilibrated (1 min) before the next sample injection. The total run time was 2.55 min, and the HPLC flow rate was 0.5 mL/min. The source temperature was set at 500 °C, and mass spectral analyses were performed using a Turbo-Ion spray source in positive ionization mode (5.0-kV spray voltage) and using multiple-reaction monitoring of transitions specific for the analytes. All data were analyzed using AB Sciex Analyst 1.5.1 software.
Brain plasma concentration ratio (Kp) was calculated by dividing brain concentration by plasma concentration for each animal. Unbound brain to unbound plasma concentration ratio (Kp,uu) is calculated using the following formula: Kp,uu = (Brain ng/g x brain fu)/(plasma ng/mL x plasma

TREK-1 = TREK-1 (Mus musculus, UniProt P97438); assay: Mouse manual patch clamp (MPC); assay type: cell-based
Kv4.3 = Kv4.3 (Homo sapiens, UniProt Q9UK17); assay: Cardiac ion channel MPC selectivity panel; assay type: cell-based
hERG = hERG (Homo sapiens, UniProt Q12809); assay: Cardiac ion channel MPC selectivity panel; assay type: cell-based

T1 sequence (P0DMS8 whole entry): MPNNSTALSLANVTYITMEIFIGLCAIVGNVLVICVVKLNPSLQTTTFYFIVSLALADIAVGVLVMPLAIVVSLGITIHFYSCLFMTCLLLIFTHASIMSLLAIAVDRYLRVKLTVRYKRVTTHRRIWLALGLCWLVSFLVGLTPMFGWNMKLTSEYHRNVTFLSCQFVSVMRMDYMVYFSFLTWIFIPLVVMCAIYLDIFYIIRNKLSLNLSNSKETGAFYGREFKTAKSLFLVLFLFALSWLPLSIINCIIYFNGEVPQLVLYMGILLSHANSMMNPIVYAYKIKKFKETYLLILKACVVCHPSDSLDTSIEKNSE
Sequence of Serotonin (5-HT2B) (P41595 whole entry): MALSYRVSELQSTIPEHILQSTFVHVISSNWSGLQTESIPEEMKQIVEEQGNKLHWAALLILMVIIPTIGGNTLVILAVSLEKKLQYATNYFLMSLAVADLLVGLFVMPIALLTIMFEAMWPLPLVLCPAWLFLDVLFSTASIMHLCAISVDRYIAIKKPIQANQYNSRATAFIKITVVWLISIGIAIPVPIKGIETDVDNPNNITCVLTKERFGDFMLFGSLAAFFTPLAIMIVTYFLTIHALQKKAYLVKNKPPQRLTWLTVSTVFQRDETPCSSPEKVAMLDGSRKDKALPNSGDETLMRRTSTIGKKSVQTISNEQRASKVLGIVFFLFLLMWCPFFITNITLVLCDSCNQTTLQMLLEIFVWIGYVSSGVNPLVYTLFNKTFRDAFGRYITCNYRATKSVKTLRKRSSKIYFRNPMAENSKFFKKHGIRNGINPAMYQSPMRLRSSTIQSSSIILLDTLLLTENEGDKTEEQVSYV
Sequence of Estrogen ERα (P03372 whole entry): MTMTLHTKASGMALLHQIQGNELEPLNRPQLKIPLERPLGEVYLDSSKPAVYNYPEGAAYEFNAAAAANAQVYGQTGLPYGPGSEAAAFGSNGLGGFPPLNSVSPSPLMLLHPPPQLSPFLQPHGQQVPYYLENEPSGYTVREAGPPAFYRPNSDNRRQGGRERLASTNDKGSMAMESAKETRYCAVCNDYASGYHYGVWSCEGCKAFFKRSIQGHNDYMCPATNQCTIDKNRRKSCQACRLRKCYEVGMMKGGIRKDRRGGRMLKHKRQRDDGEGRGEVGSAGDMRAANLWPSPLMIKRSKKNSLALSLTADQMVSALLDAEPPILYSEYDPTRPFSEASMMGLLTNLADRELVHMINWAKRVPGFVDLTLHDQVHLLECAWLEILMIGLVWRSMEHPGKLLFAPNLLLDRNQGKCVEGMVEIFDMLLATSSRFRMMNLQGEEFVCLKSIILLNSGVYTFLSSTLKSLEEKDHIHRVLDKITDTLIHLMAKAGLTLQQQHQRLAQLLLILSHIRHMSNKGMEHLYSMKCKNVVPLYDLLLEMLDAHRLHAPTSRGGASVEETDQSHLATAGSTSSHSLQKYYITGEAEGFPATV
Sequence of Nicotinic Acetylcholine α1, Bungarotoxin (P11230 24-501): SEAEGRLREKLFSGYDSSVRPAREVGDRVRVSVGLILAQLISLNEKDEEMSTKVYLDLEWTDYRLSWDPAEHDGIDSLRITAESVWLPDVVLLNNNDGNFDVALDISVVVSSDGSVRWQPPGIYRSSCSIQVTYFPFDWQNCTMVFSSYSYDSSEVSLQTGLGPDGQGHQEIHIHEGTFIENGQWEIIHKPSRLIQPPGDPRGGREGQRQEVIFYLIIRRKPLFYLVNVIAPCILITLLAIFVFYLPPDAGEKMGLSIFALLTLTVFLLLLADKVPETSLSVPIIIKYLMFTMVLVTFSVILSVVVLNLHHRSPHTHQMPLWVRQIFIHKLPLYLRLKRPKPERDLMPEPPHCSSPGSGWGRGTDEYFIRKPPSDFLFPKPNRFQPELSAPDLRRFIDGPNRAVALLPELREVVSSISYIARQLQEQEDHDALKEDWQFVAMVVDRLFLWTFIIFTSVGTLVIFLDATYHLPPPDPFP
Sequence of Nicotinic Acetylcholine α1, Bungarotoxin (P02708 21-457): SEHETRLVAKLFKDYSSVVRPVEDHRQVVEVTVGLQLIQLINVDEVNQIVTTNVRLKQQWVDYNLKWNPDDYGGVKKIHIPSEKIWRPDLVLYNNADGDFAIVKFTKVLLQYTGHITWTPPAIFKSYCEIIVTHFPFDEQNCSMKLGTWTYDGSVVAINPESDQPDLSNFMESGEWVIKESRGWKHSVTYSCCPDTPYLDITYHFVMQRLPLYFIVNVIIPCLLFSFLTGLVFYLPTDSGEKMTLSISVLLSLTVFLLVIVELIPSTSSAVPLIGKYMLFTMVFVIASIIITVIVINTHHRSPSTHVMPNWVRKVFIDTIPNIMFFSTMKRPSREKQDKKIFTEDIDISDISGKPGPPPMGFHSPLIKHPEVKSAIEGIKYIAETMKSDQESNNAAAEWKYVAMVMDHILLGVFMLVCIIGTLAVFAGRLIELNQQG
Sequence of Nicotinic Acetylcholine α1, Bungarotoxin (P07510 23-517): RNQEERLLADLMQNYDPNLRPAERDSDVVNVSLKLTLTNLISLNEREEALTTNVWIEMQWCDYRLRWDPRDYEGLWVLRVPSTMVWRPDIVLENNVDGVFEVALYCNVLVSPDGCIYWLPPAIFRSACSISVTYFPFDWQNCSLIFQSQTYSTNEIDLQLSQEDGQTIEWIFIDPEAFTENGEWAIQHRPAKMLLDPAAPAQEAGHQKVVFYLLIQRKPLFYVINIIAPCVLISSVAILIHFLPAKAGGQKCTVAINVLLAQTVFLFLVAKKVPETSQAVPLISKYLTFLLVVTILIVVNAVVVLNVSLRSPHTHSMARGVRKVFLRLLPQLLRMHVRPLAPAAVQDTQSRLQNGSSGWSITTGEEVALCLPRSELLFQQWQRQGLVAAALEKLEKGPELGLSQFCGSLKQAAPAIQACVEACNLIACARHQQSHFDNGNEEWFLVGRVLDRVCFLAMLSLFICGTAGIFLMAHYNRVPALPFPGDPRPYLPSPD
Sequence of Nicotinic Acetylcholine α1, Bungarotoxin (Q07001 22-517): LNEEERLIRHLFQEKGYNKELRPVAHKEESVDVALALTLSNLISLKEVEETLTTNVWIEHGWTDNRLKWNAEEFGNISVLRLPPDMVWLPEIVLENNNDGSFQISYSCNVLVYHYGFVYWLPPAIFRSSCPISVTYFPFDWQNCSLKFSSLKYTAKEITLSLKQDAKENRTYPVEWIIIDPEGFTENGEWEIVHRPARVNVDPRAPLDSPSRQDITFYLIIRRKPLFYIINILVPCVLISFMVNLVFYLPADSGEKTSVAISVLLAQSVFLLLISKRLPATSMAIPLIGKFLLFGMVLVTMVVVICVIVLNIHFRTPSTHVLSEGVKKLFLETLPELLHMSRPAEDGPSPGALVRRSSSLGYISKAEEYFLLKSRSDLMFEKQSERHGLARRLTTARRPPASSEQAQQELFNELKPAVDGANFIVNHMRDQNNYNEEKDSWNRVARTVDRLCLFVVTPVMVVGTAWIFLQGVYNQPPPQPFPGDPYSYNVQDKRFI
Sequence of Platelet Activating Factor (PAF) (P25105 whole entry): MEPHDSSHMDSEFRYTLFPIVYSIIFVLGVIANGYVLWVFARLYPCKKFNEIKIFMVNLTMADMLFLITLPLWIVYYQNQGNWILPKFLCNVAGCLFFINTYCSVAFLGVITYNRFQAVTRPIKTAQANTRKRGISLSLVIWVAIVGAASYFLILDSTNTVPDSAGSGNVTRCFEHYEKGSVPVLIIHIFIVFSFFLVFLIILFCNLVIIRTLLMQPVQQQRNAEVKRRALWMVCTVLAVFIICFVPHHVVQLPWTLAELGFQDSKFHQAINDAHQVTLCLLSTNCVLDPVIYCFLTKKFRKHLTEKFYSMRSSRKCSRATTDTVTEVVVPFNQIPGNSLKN
Sequence of Dopamine D4.2 (P21917 with tags, fused parts or gaps DEL265-296): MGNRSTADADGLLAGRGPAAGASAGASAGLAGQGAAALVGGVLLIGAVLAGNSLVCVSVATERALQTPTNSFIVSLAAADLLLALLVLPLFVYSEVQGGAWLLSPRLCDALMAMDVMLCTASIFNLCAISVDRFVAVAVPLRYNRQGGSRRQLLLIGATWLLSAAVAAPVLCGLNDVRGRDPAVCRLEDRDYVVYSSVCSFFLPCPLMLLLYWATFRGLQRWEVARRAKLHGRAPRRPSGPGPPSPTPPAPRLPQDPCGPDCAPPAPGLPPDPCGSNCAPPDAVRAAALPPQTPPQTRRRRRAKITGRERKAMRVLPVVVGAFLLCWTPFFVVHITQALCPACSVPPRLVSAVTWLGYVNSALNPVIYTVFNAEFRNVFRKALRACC
Sequence of Adrenergic α1D (P25100 whole entry): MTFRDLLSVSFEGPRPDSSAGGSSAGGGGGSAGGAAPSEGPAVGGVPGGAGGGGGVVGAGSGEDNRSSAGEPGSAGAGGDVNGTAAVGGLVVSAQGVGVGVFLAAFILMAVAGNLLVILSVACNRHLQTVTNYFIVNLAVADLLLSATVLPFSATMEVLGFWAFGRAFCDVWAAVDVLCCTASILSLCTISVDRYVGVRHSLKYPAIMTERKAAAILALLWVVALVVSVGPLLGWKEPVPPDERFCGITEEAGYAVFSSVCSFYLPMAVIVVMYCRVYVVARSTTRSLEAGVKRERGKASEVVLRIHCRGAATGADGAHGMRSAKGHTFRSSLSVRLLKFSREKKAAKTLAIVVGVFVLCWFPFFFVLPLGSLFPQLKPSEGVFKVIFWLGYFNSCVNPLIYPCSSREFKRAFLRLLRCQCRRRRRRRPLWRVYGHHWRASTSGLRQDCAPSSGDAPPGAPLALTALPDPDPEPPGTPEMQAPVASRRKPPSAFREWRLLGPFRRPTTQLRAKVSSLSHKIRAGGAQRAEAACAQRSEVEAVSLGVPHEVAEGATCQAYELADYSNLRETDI
Sequence of Histamine H2 (P25021 whole entry): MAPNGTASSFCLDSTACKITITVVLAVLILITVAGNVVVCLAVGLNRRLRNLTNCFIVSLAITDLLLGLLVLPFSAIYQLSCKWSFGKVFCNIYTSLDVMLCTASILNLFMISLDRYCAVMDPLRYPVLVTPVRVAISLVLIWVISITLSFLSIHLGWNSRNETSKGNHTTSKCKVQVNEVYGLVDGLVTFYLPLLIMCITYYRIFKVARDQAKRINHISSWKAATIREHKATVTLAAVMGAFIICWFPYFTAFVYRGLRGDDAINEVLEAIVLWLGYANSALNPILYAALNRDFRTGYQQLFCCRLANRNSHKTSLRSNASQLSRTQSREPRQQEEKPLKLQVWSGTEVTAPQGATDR

**Q.** With `O=C(NCc1ccc(OC(F)(F)F)cc1F)c1ccc2ncnn2c1` [ONO-2920632] as the molecule, how does the inhibition at 10 µM (Adenosine A3) read?
**A.** 84%

**Q.** And the inhibition at 10 µM (Adrenergic α1D)?
**A.** 26%

**Q.** And the inhibition at 10 µM (Adrenergic β1)?
**A.** -1%

**Q.** What about the inhibition at 10 µM (Bradykinin B1) of the same molecule?
**A.** 27%

**Q.** And the inhibition at 10 µM (Dopamine D4.2)?
**A.** 5%

**Q.** And the inhibition at 10 µM (Endothelin ETB)?
**A.** -6%

**Q.** What about the inhibition at 10 µM [1] of the same molecule?
**A.** -2%

**Q.** What about the inhibition at 10 µM (Estrogen ERα) of the same molecule?
**A.** 8%

**Q.** What about the “% Inhibition at 10 µM” value (GABAA, Muscimol, Central) of the same molecule?
**A.** 2%

**Q.** What about the inhibition at 10 µM (GABAB1A) of the same molecule?
**A.** 0%

**Q.** And the inhibition at 10 µM (Histamine H2)?
**A.** -12%

**Q.** What about the “% Inhibition at 10 µM” value (Imidazoline I2, Central) of the same molecule?
**A.** 10%

**Q.** And the inhibition at 10 µM (Neuropeptide Y Y1)?
**A.** 15%

**Q.** What about the inhibition at 10 µM [2] of the same molecule?
**A.** -4%

**Q.** What about the inhibition at 10 µM (Opiate μ (OP3, MOP)) of the same molecule?
**A.** 15%

**Q.** What about the inhibition at 10 µM [3] of the same molecule?
**A.** 26%

**Q.** And the “% Inhibition at 10 µM” value (Purinergic P2X)?
**A.** 1%

**Q.** And the inhibition at 10 µM (Serotonin (5-HT2B))?
**A.** 31%

**Q.** And the inhibition at 10 µM (Serotonin (5-HT3))?
**A.** -4%

**Q.** What about the “% Inhibition at 10 µM” value (Sodium Channel, Site 2; 10 µM) of the same molecule?
**A.** 84%

**Q.** And the inhibition at 10 µM [4]?
**A.** 29%

**Q.** And the inhibition at 10 µM [5]?
**A.** -3%

**Q.** For `Cc1cc(C#Cc2ccc(F)cc2)cnc1NC(=O)c1cc(NC(=O)OC(C)(C)C)ccc1Cl` [Compound 14c], which fraction unbound at 6 h, 5 µM [6] is on record?
**A.** 0.006

**Q.** What about the clearance at 24 h ([7]; iv, in vivo rat plasma clearance, read-out: rat CLp) of the same molecule?
**A.** 21.2 mL/min/kg

**Q.** And the half-life at 24 h ([7]; plasma, rat IV:PBL PK cassette)?
**A.** 407 min

**Q.** What about the Vd at 24 h ([7]; plasma, rat IV:PBL PK cassette, read-out: volume of distribution) of the same molecule?
**A.** 6.7 L/kg

**Q.** And the Tmax ([8]; CD-1, brain, mouse, 10 mg/kg IP)?
**A.** 4 h

**Q.** And the “Cmax total brain concentration” value ([8]; CD-1 male mouse, 10 mg/kg PO)?
**A.** 252 nM

**Q.** And the “brain AUC” value ([8]; CD-1 male mouse, 10 mg/kg PO)?
**A.** 2269 nM·h

**Q.** What about the Tmax ([8]; brain, CD-1 male mouse, 10 mg/kg PO) of the same molecule?
**A.** 4 h

**Q.** What about the “Cmax total brain exposure” value ([8]; mouse, 10 mg/kg IP) of the same molecule?
**A.** 888 nM

**Q.** What about the “brain AUC” value ([8]; mouse, 10 mg/kg IP) of the same molecule?
**A.** 12,261 h*nM

**Q.** What about the Cmax unbound brain ([8]; mouse, 10 mg/kg IP, based on mouse brain homogenate binding) of the same molecule?
**A.** 5.3 nM

**Q.** And the IC50 (TREK-1)?
**A.** 67 nM

**Q.** And the “% at 10 μM, Kv4.3” value (Kv4.3)?
**A.** < 50%

**Q.** And the “% at 10 μM, hERG” value (hERG)?
**A.** < 50%

**Q.** What about the Ki (Adenosine A3) of the same molecule?
**A.** 480 nM

**Q.** And the Ki (Sodium Channel, Site 2)?
**A.** 650 nM
